Data taken from patent publication US12304909B2, “Compounds and their use in therapy” (IMPERIAL COLLEGE INNOVATIONS LIMITED, priority 2018, dated 2025).
Values joined by “and” are separate entries in the source; they are usually repeats but may differ in a detail not shown here. Identical values can stand only once. Like-named read-outs stand apart in the source and are kept apart here.

Key:
MRC5 cells = assay: Metabolic activity assay (MTS assay), MRC5; type: cell-based, human
Procedure: (§1) Example NMT inhibitors of the present invention were tested for activity in an in vitro metabolic activity assay using the human cell line MRC5. Comparative Examples 1, 2, 3, 4, 5 and 6 were also tested in the same metabolic activity assay. Compounds having activity in inhibiting metabolic activity in the assay are expected to be useful as agents for preventing and/or treating cancer, by virtue of being inhibitors of human NMT1 and/or NMT2.
MRC5 cells (obtained from Dr David Mann's group, Imperial College; cell type: fibroblasts cells which derive from normal lung tissue) were grown in DMEM media (supplemented with 10% FBS) and were seeded in a 96-well plate, 24 h prior to treatment. Cell suspensions were prepared by adjusting the cell density to the appropriate concentration (as stated in the Table 1 below) and 50 μL of the cell suspension was transferred to wells B-G in columns 2-11 of a 96-well plate.
100 μL of growth media (DMEM media) containing 0.2% DMSO was added to wells B-G in columns 2 and 11 as positive controls, and 100 μl of growth media containing Puromycin (3 μg/mL; final concentration in the plate 2 μg/mL) was added to wells B-G in column 3 as a negative control. Seven concentrations of NMT inhibitor stock solution were prepared for each Example (Example 1 and 2) and each Comparative Example (Comparative Examples 1, 2, 3, 4, 5 and 6) tested (same final percentage of DMSO, dilution factor=3 starting from 15 μM or 150 μM). 100 μL of inhibitor stock solution was added to wells B-G in columns 4-10 of a 96-well plate (final concentration of Example compound or Comparative Example compound in the plate starting from 10 μM or 100 μM; total volume in each well was 150 μL). The plate was incubated at 37° C. with 5% CO2 level.
After 72 h, 20 μL MTS reagent (Promega, prepared according to the supplier protocol) was added to each well of the 96-well plate. The plate was incubated at 37° C. for 2 h and the absorbance per well was measured at 490 nm with an EnVision plate reader. The average absorbance value of the negative control (Puromycin-treated cells) was subtracted from each value and the metabolic activity was calculated as a percentage relative to the positive control (DMSO-treated cells). EC50 values were calculated using GraphPad.

BL-41 cells = assay: CellTiter-Blue assay, BL-41; type: cell-based, human
Procedure: as §1, with “in” for “in an”, “CellTiter-Blue® assays” for “metabolic activity assay”, “MDA MB 231, LY 12318, or BL-41.” for “MRC5.”, “1” for “1, 2, 3, 4, 5”, “2” for “6”, “assays.” for “metabolic activity assay.”
(§2) MDA MB 231 cells (obtained from Professor Eric Aboagye, Hammersmith Hospital; cell type: triple negative breast cancer) were grown in low glucose DMEM in 5% CO2 media (supplemented with 10% FBS); LY 12318 cells (obtained from Dr Martin Janz, Max Delbrueck Center; cell type: B cell lymphoma patient derived xenograft) were grown in DMEM media (supplemented with 10% FBS); and BL-41 cells (obtained from Cell Services at the Crick Institute; cell type: Burkitt's Lymphoma) were grown in RPMI-1640 media in 5% CO2 (supplemented with 10% FBS). The MDA MB 231 cells, LY 12318 cells or BL-41 cells were seeded in 96-well plates, 24 h prior to treatment. Cell suspensions were prepared by adjusting the cell density to the appropriate concentration (as stated in the Table 2 below) and 50 μL of the cell suspension was transferred to wells B-G in columns 2-11 of a 96-well plate.
(§3) Twenty-four hours later, 50 μl of growth media (low glucose DMEM in 5% CO2 media supplemented with 10% FBS for MDA MB 231 cells; DMEM media in 5% CO2 supplemented with 10% FBS for LY 12318 cells; or RPMI-1640 media supplemented with 10% FBS for BL-41 cells) containing 0.0004% DMSO (positive control), a mix of Puromycin and Staurosporine (negative controls, final concentration 2 μg/mL and 1 μM respectively) or different concentrations of each Example (Example 1 and 2) or each Comparative Example (Comparative Example 1 and 2) (dilution factor=3, starting at […], final concentration in the plate starting from 10 μM) were prepared and added to a well of the 96-well plate. The plate was incubated at 37° C. with 5% CO2 level.
(§4) 72 hours later, 20 μl/well CellTiter-Blue® (G8081, Promega) were added to the plates according to the manufacturer's protocol, the plate was incubated at 37° C. for 4 h for MDA MB 231 cells and BL-41 cells, or 3 h for LY 12318 cells, followed by measuring the absorbance per well at 570 nm using an EnVision plate reader. The negative control values were subtracted from every value. The metabolic activity was calculated as a percentage relative to the positive control. The EC50 values were calculated using GraphPad Prism.

LY 12318 cells = assay: CellTiter-Blue assay, LY 12318; type: cell-based, human; conditions: 72 h, read-out: LY12318 EC50
Procedure: as §1, with “in” for “in an”, “CellTiter-Blue® assays” for “metabolic activity assay”, “MDA MB 231, LY 12318, or BL-41.” for “MRC5.”, “1” for “1, 2, 3, 4, 5”, “2” for “6”, “assays.” for “metabolic activity assay.”
as §2, §3, §4

MDA MB 231 cells = assay: CellTiter-Blue assay, MDA MB 231; type: cell-based, human
Procedure: as §1, with “in” for “in an”, “CellTiter-Blue® assays” for “metabolic activity assay”, “MDA MB 231, LY 12318, or BL-41.” for “MRC5.”, “1” for “1, 2, 3, 4, 5”, “2” for “6”, “assays.” for “metabolic activity assay.”
as §2, §3, §4

human NMT1 (HsNMT1) = target: T1, human NMT1 (HsNMT1) (Homo sapiens, UniProt P30419); assay: HsNMT1 IC50, fluorescence-based assay detecting CoA with CPM; type: biochemical
T1 sequence (P30419 1-496): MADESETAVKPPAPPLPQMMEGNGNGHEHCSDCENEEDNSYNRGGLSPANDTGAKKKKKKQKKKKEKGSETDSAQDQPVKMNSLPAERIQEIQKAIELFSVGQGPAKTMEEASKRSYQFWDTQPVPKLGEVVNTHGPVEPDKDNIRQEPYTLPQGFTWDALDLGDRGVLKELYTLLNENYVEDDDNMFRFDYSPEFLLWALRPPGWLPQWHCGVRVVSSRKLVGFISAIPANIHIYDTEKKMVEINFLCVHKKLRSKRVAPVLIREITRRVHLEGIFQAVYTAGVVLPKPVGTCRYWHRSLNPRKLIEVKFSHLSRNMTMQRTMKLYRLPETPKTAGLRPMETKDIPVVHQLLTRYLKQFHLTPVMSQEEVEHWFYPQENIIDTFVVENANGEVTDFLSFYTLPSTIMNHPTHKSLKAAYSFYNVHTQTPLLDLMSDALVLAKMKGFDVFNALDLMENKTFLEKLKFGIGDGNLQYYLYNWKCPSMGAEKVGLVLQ
Procedure: The IC50 values for human NMT1 (HsNMT1) of four Example compounds of the invention described above (Examples 1-4) and six comparative examples (Comparative Examples 1, 2, 3, 4, 5 and 6) were measured using a sensitive fluorescence-based assay based on detection of CoA by 7-diethylamino-3-(4-maleimido-phenyl)-4-methylcoumarin, as described in Goncalves, V., et al., Analytical Biochemistry, 2012, 421, 342-344 and Goncalves, V., et al., J. Med. Chem, 2012, 55, 3578.

Rat hepatocyte half life = type: in vitro ADME, Sprague-Dawley rats; conditions: pooled cryopreserved rat hepatocytes, pH 7.4; pooled male Sprague-Dawley rat hepatocytes; read-out: Rat Hepatocyte t ½
Procedure: (§5) Example Compound 1 was tested for metabolic stability in rat metabolic assays using hepatocytes derived from pooled male Sprague-Dawley rats. Comparative Examples 2, 3 and 4 were also tested in the same assay. Compounds having good metabolic stability in the assay are expected to be especially useful as agents for preventing and/or treating cancer, by having a long half-life in human patients.
Frozen pooled rat hepatocytes obtained from LifeTechnologies were thawed and purified according to the manufacturer's instructions. The test compound (4 mM) in DMSO was diluted with acetonitrile to provide a 100 μM sub-stock then further diluted with pH7.4 Krebs-Henseleit buffer supplemented with CaCl2), NaHCO3, HEPES, fructose and glycine) to provide a 2 μM working solution. 25 μL of working solution was incubated at 37° C., treated with 25 μL of rat hepatocyte suspension (containing 1×10^6 cells/mL) and incubated at 37° C. with 5% CO2 level at 95% relative humidity. Wells were incubated for an appropriate time (0, 15, 30, 45, 60 and 75 min) then quenched with 250 μL of acetonitrile containing reference standards diltiazem, 7-ethoxycoumarin and propranolol). The plates were shaken, sonicated for 5 min then cooled to 4° C. until all sampling was complete. All plates were centrifuged at 4000 rpm for 20 min to pellet the debris. 110 μl supernatant was diluted 110 μL water and quantitated using LC-MS/MS.
The results were used to calculate the % Remaining of the test compound at time point t=100×˜[(AUC at time point t)/(AUC at T=0)]. A linear regression curve was fitted to a plot of natural logarithm (In) of AUC against time. The T-half (min)=0.693/slope

[1] = Human liver microsomes half life; type: in vitro ADME; conditions: pH 7.4, read-out: Human liver microsomes t ½
Procedure: as §5, with “an assay” for “rat metabolic assays”, “human liver microsomes.” for “hepatocytes derived from pooled male Sprague-Dawley rats.”, “3, 4, 5” for “3”, “6” for “4”, “patients” for “patients.”
Frozen human liver microsomes obtained from Corning, USA (cat #452117) were thawed and diluted with 100 mM of pH 7.4 phosphate buffer to give a 1 mg/ml solution. An NADPH regeneration system (NRS) was prepared as a solution containing 13 mM NADP, 33 mM glucose-6-phosphate, 33 mM MgCl2 and 4U/mL glucose-6-phosphate dehydrogenase in 100 mM of pH7.4 phosphate buffer. The test compound (4 mM) in DMSO was diluted with acetonitrile to provide a 100 μM sub-stock then further diluted with 100 mM of pH7.4 phosphate buffer to provide a 2 μM working solution. The liver microsome solution and NRS were incubated at 37° C. before use. To each well of the test plate was dispensed 60 μL of buffer, 50 μL of test compound solution and 10 μL of NRS. A reaction was initiated by addition of 40 μL of liver microsome solution. Wells were incubated for an appropriate time (0, 5, 10, 20, 30 and 60 min) then quenched with 300 μL of acetonitrile containing reference standards atenolol, propranolol, diclofenac, verapamil). All plates were centrifuged at 3500 rpm for 20 min at 15° C. to pellet the debris. 110 μL supernatant was diluted 110 μL water and quantitated using LC-MS/MS.
The results were used to calculate the % Remaining of the test compound at time point t=100×˜[(AUC at time point t)/(AUC at T=0)]. A linear regression curve was fitted to a plot of natural logarithm (In) of AUC against time. The T-half (min)=0.693/slope.

| IC50 (human NMT1 (HsNMT1)) | half-life at 0.625 µM [1] [min] | SMILES | EC50 (MRC5 cells; Homo sapiens, MRC5, 72 h) [nM] | EC50 (LY 12318 cells; Homo sapiens) [nM] | EC50 (MDA MB 231 cells; Homo sapiens, MDA-MB-231, 72 h) [nM] | further results |
| --- | --- | --- | --- | --- | --- | --- |
|  |  | CNC(=O)c1nn(C)c(C)c1CCOc1cc(Cl)ccc1-c1ccc2ncc(CCN)n2c1 [Example Compound 2, 4-(2-{2-[3-(2-aminoethyl)imidazo[1,2-a]pyridin-6-yl]-5-chlorophenoxy}ethyl)-N,1,5-trimethyl-1H-pyrazole-3-carboxamide] | < 40 | < 70 | < 70 | EC50 (MRC5 cells; 72 h): 37 nM; EC50 (BL-41 cells; 72 h): 24 nM; EC50 (LY 12318 cells): 69 nM; EC50 (MDA MB 231 cells; 72 h): 45 nM |
| ~1 nM and 1 nM | 12 | Cc1c(CCOc2cc(F)ccc2-c2ccc3ncc(CN(C)C)n3c2)c(C(=O)N(C)C)nn1C [Comparative Example 4, 4-[2-(2-{3-[(dimethylamino)methyl]imidazo[1,2-a]pyridin-6-yl}-5-fluorophenoxy)ethyl]-N,N,1,5-tetramethyl-1H-pyrazole-3-carboxamide] | 63 |  |  | half-life at 1 µM (Rat hepatocyte half life): 32 min |
| 6.3 nM |  | CNC(=O)c1nn(C)c(C)c1CCOc1c(-c2ccc3ncc(CCN)n3c2)ccc(Cl)c1F [Example Compound 4, 4-(2-{6-[3-(2-aminoethyl)imidazo[1,2-a]pyridin-6-yl]-3-chloro-2-fluorophenoxy}ethyl)-N,1,5-trimethyl-1H-pyrazole-3-carboxamide] |  |  |  |  |
| 2 nM |  | Cc1c(CCOc2cc(F)ccc2-c2ccc3ncc(CCN)n3c2)c(C(=O)N(C)C)nn1C [Comparative Example 1, 4-(2-{2-[3-(2-aminoethyl)imidazo[1,2-a]pyridin-6-yl]-5-fluorophenoxy}ethyl)-N,N,1,5-tetramethyl-1H-pyrazole-3-carboxamide] | 450 | 246 | 285 | EC50 (BL-41 cells; Homo sapiens, BL-41, 72 h): 91 nM |
|  | 4 | Cc1nn(C)c(C)c1CCOc1c(F)cccc1-c1ccc2c(c1)c(CN(C)C)nn2C [Comparative Example 6, 1-(5-(3-fluoro-2-(2-(1,3,5-trimethyl-1H-pyrazol-4-yl)ethoxy)phenyl)-1-methyl-1H-indazol-3-yl)-N,N-dimethylmethanamine] | 38 |  |  |  |
| 4.2 nM |  | Cc1c(CCOc2c(-c3ccc4ncc(CCN)n4c3)ccc(Cl)c2F)c(C(=O)N(C)C)nn1C [Example Compound 3, 4-(2-{6-[3-(2-aminoethyl)imidazo[1,2-a]pyridin-6-yl]-3-chloro-2-fluorophenoxy}ethyl)-N,N,1,5-tetramethyl-1H-pyrazole-3-carboxamide] |  |  |  |  |
